From the supplement of paper PMC11208160

Assay: recombinant UMI read abundance after kanamycin selection (control-corrected) (log10(CPM+1)); higher = more efficient recombination; extreme values may be limits of the assay; sequences stand for … in AGTGCAGAGAAAATCGGCCAGTTTTCTCTGCCTGCAGTCCGCATGCCGTGGGACCCCTTGGGTTCTAACCTGTTGCCTAGATTTATGCAGCGGACTGCCTTTCTCCCAAAGTGATAAACCGG…AGGTTGGTTTCACT; site = the 11-nt donor
Procedure, shortened: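 Under IPTG (0.07 mM) plus kanamycin, or without selection, Escherichia coli carrying a UMI-tagged donor and donor-binding-loop pair library and a target plasmid for the IS621 bridge recombinase were plated in two replicates. Recombinant UMIs were PCR-amplified across the donor–target junction and sequenced. Counts were converted to CPM, averaged over replicates, scaled by control-derived factors and reported as log10(CPM+1).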
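Further: IS621 bridge recombinase in Escherichia coli cells against a fixed T5 target plasmid.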

In order of falling “recombinant UMI read abundance (log10)” value:
1. GAAGATTCATGGACCGGTTTTCCCGGTAATCCGTATTTGGT (site GAAGATTCTAC)  3.05
2. CAACTGACATGGACCGGTTTTCCCGGTAATCCGTATTTGCT (site CAACTGACTAG)  2.48
3. CAAGCAGCATGGACCGGTTTTCCCGGTAATCCGTATTTGAT (site CAAGCAGCTAT)  2.44
4. AATGTTACATGGACCGGTTTTCCCGGTAATCCGTATTTGCT (site AATGTTACTAG)  2.3
5. CTAGTATCATGGACCGGTTTTCCCGGTAATCCGTATTTGAT (site CTAGTATCTAT)  2.21
6. CTAGTATCATGGACCGGTTTTCCCGGTAATCCGTATTTGAC (site GGAGTATCTGT)  2.07
7. AGGCGAGCATGGACCGGTTTTCCCGGTAATCCGTATTTGCG (site AGGCGAGCTCG)  2.02
8. CAATCCTCATGGACCGGTTTTCCCGGTAATCCGTATTTGAA (site CAATCCTCTTT)  1.98
9. CTGGAAACATGGACCGGTTTTCCCGGTAATCCGTATTTGCA (site CCGGAAACTTG)  1.93
10. CACGGCCCATGGACCGGTTTTCCCGGTAATCCGTATTTGTT (site CACGGCTCTAA)  1.79
11. GTAGTTACATGGACCGGTTTTCCCGGTAATCCGTATTTGAC (site GTAGCTACTGT)  1.23
12. AGGTCTACATGGACCGGTTTTCCCGGTAATCCGTATTTGAC (site AGGTCTACTGT)  1.18
13. TGTAGTGCATGGACCGGTTTTCCCGGTAATCCGTATTTGCG (site TGTAGTGCTCG)  0.963
14. CGATGATCATGGACCGGTTTTCCCGGTAATCCGTATTTGCT (site CGATTATCTAG)  0.958
15. ATCCAAGCATGGACCGGTTTTCCCGGTAATCCGTATTTGAG (site ATCCAATCTCT)  0.773
16. CCGGTAACATGGACCGGTTTTCCCGGTAATCCGTATTTGCG (site CCGGTAACTCG)  0.686
17. TAATGATCATGGACCGGTTTTCCCGGTAATCCGTATTTGGG (site TAATGATCTCC)  0.594
18. CACCACACATGGACCGGTTTTCCCGGTAATCCGTATTTGTA (site CCCCACACTTA)  0.591
19. GAGTAGGCATGGACCGGTTTTCCCGGTAATCCGTATTTGGG (site GAGTAGGCTCC)  0.566
20. ATCTATACATGGACCGGTTTTCCCGGTAATCCGTATTTGAC (site ATCTATTCTGT)  0.327
21. GTAGTCGCATGGACCGGTTTTCCCGGTAATCCGTATTTGGG (site GTAGTCGCTCA)  0.214
22. TTAGCTGCATGGACCGGTTTTCCCGGTAATCCGTATTTGTG (site TTAGCTGCTCT)  0.162
23. TGTTCAGCATGGACCGGTTTTCCCGGTAATCCGTATTTGTA (site TGTTCAGCTTA)  0.141
24. CGCTCAGCATGGACCGGTTTTCCCGGTAATCCGTATTTGGG (site CGCTCAGCTCC)  0.0677
25. CAATGAGCATGGACCGGTTTTCCCGGTAATCCGTATTTGGG (site AAATGAGCTCC)  0.0303
26. CTAGTATCATGGACCGGTTTTCCCGGTAATCCGTATTTGAC (site CTAGTATCTTG)  0.0198
27. ATGGAGGCATGGACCGGTTTTCCCGGTAATCCGTATTTGTG (site GTGGAGGCTCA)  0.0176
28. ATCCAAGCATGGACCGGTTTTCCCGGTAATCCGTATTTGAG (site ATCCAACCTCT)  0.00996
29. CTTGTTCCATGGACCGGTTTTCCCGGTAATCCGTATTTGGT (site CTTGTTCCTAC)  0.00959
30. AAGCCCGCATGGACCGGTTTTCCCGGTAATCCGTATTTGGG (site AAGCACGCTCC)  0.00486
31. TACCGTCCATGGACCGGTTTTCCCGGTAATCCGTATTTGAT (site TACCGTCCTAT)  0.00444
32. CTAGTATCATGGACCGGTTTTCCCGGTAATCCGTATTTGAC (site ATAGTTTCTGT)  0
33. ACAGGATCATGGACCGGTTTTCCCGGTAATCCGTATTTGAA (site ACAGTATCTTG)  0
34. CGAAGATCATGGACCGGTTTTCCCGGTAATCCGTATTTGCT (site CGATCATCTAG)  0
35. GAAGGTACATGGACCGGTTTTCCCGGTAATCCGTATTTGAC (site GCAGGTACTGT)  0
36. CTAGTATCATGGACCGGTTTTCCCGGTAATCCGTATTTGAC (site CGAGTACCTGT)  0
37. GGGGAACCATGGACCGGTTTTCCCGGTAATCCGTATTTGAT (site AGGGAACCTAT)  0
